Source: article PMC5218480 (PLoS ONE, 2017)

Tested on: MV-4-11 cells
Assay: Gene expression microarray analysis (Affymetrix PrimeView) and GSEA
Type: cell-based, human
Parameters: RFU PODN (11730768_x_at) / Fold change /veh PODN (11730768_x_at) / RFU LINC00158 (11744669_a_at) / Fold change /veh LINC00158 (11744669_a_at) / RFU DUSP10 (11751237_a_at) / Fold change /veh DUSP10 (11751237_a_at) / RFU ID3 (11757404_x_at) / Fold change /veh ID3 (11757404_x_at) / RFU PLEKHG5 (11737974_s_at) / Fold change /veh PLEKHG5 (11737974_s_at) / RFU LRRC4B (11730491_at) / Fold change /veh LRRC4B (11730491_at) / RFU GIMAP4 (11747438_a_at) / Fold change /veh GIMAP4 (11747438_a_at) / RFU KRT8 (11758183_x_at) / Fold change /veh KRT8 (11758183_x_at) / RFU CNN1 (11734310_a_at) / Fold change /veh CNN1 (11734310_a_at) / RFU VPS37D (11726825_at) / Fold change /veh VPS37D (11726825_at) / RFU C10orf10 (11716522_x_at) / Fold change /veh C10orf10 (11716522_x_at) / RFU KIR2DL2 /// KIR2DL4 /// KIR2DL5A /// KIR2DL5B /// KIR2DS1 /// KIR2DS2 /// KIR2DS3 /// KIR2DS4 /// KIR3DL3 /// KIR3DL3 /// KIR3DS1 (11738374_at) / Fold change /veh KIR2DL2 /// KIR2DL4 /// KIR2DL5A /// KIR2DL5B /// KIR2DS1 /// KIR2DS2 /// KIR2DS3 /// KIR2DS4 /// KIR3DL3 /// KIR3DL3 /// KIR3DS1 (11738374_at) / RFU C1QL1 (11718748_at) / Fold change /veh C1QL1 (11718748_at) / RFU TMPRSS4 (11747572_a_at) / Fold change /veh TMPRSS4 (11747572_a_at) / RFU HAMP (11756126_x_at) / Fold change /veh HAMP (11756126_x_at) / RFU RNFT2 (11725882_a_at) / Fold change /veh RNFT2 (11725882_a_at) / RFU NR4A2 (11747474_a_at) / Fold change /veh NR4A2 (11747474_a_at) / RFU ABCC12 (11746883_a_at) / Fold change /veh ABCC12 (11746883_a_at) / RFU TMEM136 (11760407_x_at) / Fold change /veh TMEM136 (11760407_x_at) / RFU CLDN22 /// WWC2 (11732394_at) / Fold change /veh CLDN22 /// WWC2 (11732394_at) / RFU HLA-DPB1 (11760878_x_at) / Fold change /veh HLA-DPB1 (11760878_x_at) / RFU SPINT1 (11716480_a_at) / Fold change /veh SPINT1 (11716480_a_at) / RFU GAP43 (11754022_s_at) / Fold change /veh GAP43 (11754022_s_at) / RFU A4GNT (11735810_at) / Fold change /veh A4GNT (11735810_at) / RFU PRB3 (11715151_x_at) / Fold change /veh PRB3 (11715151_x_at) / RFU TUBB4B (11761932_at) / Fold change /veh TUBB4B (11761932_at) / RFU CAPN14 (11732068_a_at) / Fold change /veh CAPN14 (11732068_a_at) / RFU TMCC2 (11721928_a_at) / Fold change /veh TMCC2 (11721928_a_at) / RFU IRGQ (11745062_a_at) / Fold change /veh IRGQ (11745062_a_at) / RFU FAM174B (11720279_a_at) / Fold change /veh FAM174B (11720279_a_at) / RFU TMPRSS4 (11748680_a_at) / Fold change /veh TMPRSS4 (11748680_a_at) / RFU FAM212B (11763350_a_at) / Fold change /veh FAM212B (11763350_a_at) / RFU PLEKHG5 (11743358_a_at) / Fold change /veh PLEKHG5 (11743358_a_at) / RFU ZSCAN30 (11745921_a_at) / Fold change /veh ZSCAN30 (11745921_a_at) / RFU CMKLR1 (11741424_a_at) / Fold change /veh CMKLR1 (11741424_a_at) / RFU LOC101060620 /// MAPK8IP1 (11723275_at) / Fold change /veh LOC101060620 /// MAPK8IP1 (11723275_at) / RFU SPTSSB (11747773_x_at) / Fold change /veh SPTSSB (11747773_x_at) / RFU PRSS12 (11739890_at) / Fold change /veh PRSS12 (11739890_at) / RFU BIN1 (11741810_x_at) / Fold change /veh BIN1 (11741810_x_at) / RFU WNT11 (11732464_a_at) / Fold change /veh WNT11 (11732464_a_at) / RFU C10orf10 (11716521_a_at) / Fold change /veh C10orf10 (11716521_a_at) / RFU C5orf56 (11738089_at) / Fold change /veh C5orf56 (11738089_at) / RFU CYB561 (11721691_x_at) / Fold change /veh CYB561 (11721691_x_at) / RFU ANKRD19P (11752326_a_at) / Fold change /veh ANKRD19P (11752326_a_at) / RFU OR2T12 /// OR2T33 /// OR2T8 (11738714_s_at) / Fold change /veh OR2T12 /// OR2T33 /// OR2T8 (11738714_s_at) / RFU VCAN (11748164_a_at) / Fold change /veh VCAN (11748164_a_at) / RFU JSRP1 (11732532_at) / Fold change /veh JSRP1 (11732532_at) / RFU KRTAP10-11 (11738290_x_at) / Fold change /veh KRTAP10-11 (11738290_x_at) / RFU MYO3A (11730013_a_at) / Fold change /veh MYO3A (11730013_a_at) / RFU EBF3 (11725865_a_at) / Fold change /veh EBF3 (11725865_a_at) / RFU CAMK2N1 (11719241_x_at) / Fold change /veh CAMK2N1 (11719241_x_at) / RFU C5orf56 (11738088_a_at) / Fold change /veh C5orf56 (11738088_a_at) / RFU OLFML3 (11715873_a_at) / Fold change /veh OLFML3 (11715873_a_at) / RFU LOC100653217 /// NTM (11731650_a_at) / Fold change /veh LOC100653217 /// NTM (11731650_a_at) / RFU MAPK11 (11762145_a_at) / Fold change /veh MAPK11 (11762145_a_at) / RFU FIZ1 (11724087_x_at) / Fold change /veh FIZ1 (11724087_x_at) / RFU OASL (11726364_x_at) / Fold change /veh OASL (11726364_x_at) / RFU SOX15 (11748057_x_at) / Fold change /veh SOX15 (11748057_x_at) / RFU CD79A (11719716_a_at) / Fold change /veh CD79A (11719716_a_at) / RFU HIST1H1D (11736915_at) / Fold change /veh HIST1H1D (11736915_at) / RFU CASKIN2 (11723855_a_at) / Fold change /veh CASKIN2 (11723855_a_at) / RFU LOC730098 (11760151_x_at) / Fold change /veh LOC730098 (11760151_x_at) / RFU OR4N2 (11742367_at) / Fold change /veh OR4N2 (11742367_at) / RFU PRRT2 (11749266_a_at) / Fold change /veh PRRT2 (11749266_a_at) / RFU SNX32 (11753110_a_at) / Fold change /veh SNX32 (11753110_a_at) / RFU CDHR5 (11726645_a_at) / Fold change /veh CDHR5 (11726645_a_at) / RFU RCAN1 (11760418_a_at) / Fold change /veh RCAN1 (11760418_a_at) / RFU FAM167A (11723789_a_at) / Fold change /veh FAM167A (11723789_a_at) / RFU FAM26E (11764081_at) / Fold change /veh FAM26E (11764081_at) / RFU ISYNA1 (11749810_s_at) / Fold change /veh ISYNA1 (11749810_s_at) / RFU ACY1 (11761880_at) / Fold change /veh ACY1 (11761880_at) / RFU 11764098_at / Fold change /veh 11764098_at / RFU SAMD14 (11745864_x_at) / Fold change /veh SAMD14 (11745864_x_at) / RFU NPB (11741838_a_at) / Fold change /veh NPB (11741838_a_at) / RFU TMPRSS6 (11731388_a_at) / Fold change /veh TMPRSS6 (11731388_a_at) / RFU KRTAP10-2 (11738614_at) / Fold change /veh KRTAP10-2 (11738614_at) / RFU ARHGAP8 /// PRR5-ARHGAP8 (11727945_x_at) / Fold change /veh ARHGAP8 /// PRR5-ARHGAP8 (11727945_x_at) / RFU KRTAP5-7 /// NADSYN1 (11734609_at) / Fold change /veh KRTAP5-7 /// NADSYN1 (11734609_at) / RFU RASL12 (11751679_a_at) / Fold change /veh RASL12 (11751679_a_at) / RFU CDKN2B (11736163_a_at) / Fold change /veh CDKN2B (11736163_a_at) / RFU PRF1 (11729649_at) / Fold change /veh PRF1 (11729649_at) / RFU, ZNF638 /// ZNF638-IT1 / Fold change vs veh, ZNF638 /// ZNF638-IT1 / RFU, PANK3 / Fold change vs veh, PANK3 / RFU, SH3YL1 / Fold change vs veh, SH3YL1 / RFU, ZEB2 / Fold change vs veh, ZEB2 / RFU, NRIP1 / Fold change vs veh, NRIP1 / RFU, PTTG1IP / Fold change vs veh, PTTG1IP / RFU, CAPN2 / Fold change vs veh, CAPN2 / RFU, MED14 / Fold change vs veh, MED14 / RFU, SNORA58 / Fold change vs veh, SNORA58 / RFU, C1orf63 / Fold change vs veh, C1orf63 / RFU, LRRFIP1 / Fold change vs veh, LRRFIP1 / RFU, NDUFAF7 / Fold change vs veh, NDUFAF7 / RFU, SLC12A2 / Fold change vs veh, SLC12A2 / RFU, IBTK / Fold change vs veh, IBTK / RFU, ESF1 / Fold change vs veh, ESF1 / Fold change vs veh, TMEM50B / RFU, TAOK1 / Fold change vs veh, TAOK1 / RFU, ACBD3 / Fold change vs veh, ACBD3 / RFU, TMA16 / Fold change vs veh, TMA16 / RFU, RWDD3 / Fold change vs veh, RWDD3 / RFU, BCAT1 / Fold change vs veh, BCAT1 / RFU, EDEM3 / Fold change vs veh, EDEM3 / RFU, TMEM33 / Fold change vs veh, TMEM33 / RFU, WDR75 / Fold change vs veh, WDR75 / RFU, AHCTF1 / Fold change vs veh, AHCTF1 / RFU, TFRC / Fold change vs veh, TFRC / RFU, ZDHHC17 / Fold change vs veh, ZDHHC17 / RFU, NOM1 / Fold change vs veh, NOM1 / RFU, ARL8B / Fold change vs veh, ARL8B / RFU, ZBTB11 / Fold change vs veh, ZBTB11 / RFU, TAMM41 / Fold change vs veh, TAMM41 / RFU, KIAA1704 /// LOC100996395 / Fold change vs veh, KIAA1704 /// LOC100996395 / RFU, ING1 / Fold change vs veh, ING1 / RFU, TRMT61B / Fold change vs veh, TRMT61B / RFU, FUBP3 / Fold change vs veh, FUBP3 / RFU, TP53 / Fold change vs veh, TP53 / RFU, TNKS2 / Fold change vs veh, TNKS2 / RFU, ZFP14 / Fold change vs veh, ZFP14 / RFU, ACTR2 / Fold change vs veh, ACTR2 / RFU, PPP3R1 / Fold change vs veh, PPP3R1 / RFU, PIK3R1 / Fold change vs veh, PIK3R1 / RFU, HNRNPA1 / Fold change vs veh, HNRNPA1 / RFU, RNF170 / Fold change vs veh, RNF170 / RFU, ZNF28 / Fold change vs veh, ZNF28 / RFU, RNGTT / Fold change vs veh, RNGTT / RFU, OGT / Fold change vs veh, OGT / RFU, BRD1 / Fold change vs veh, BRD1 / RFU, MARS / Fold change vs veh, MARS / RFU, ZNF655 / Fold change vs veh, ZNF655 / RFU, FAHD1 / Fold change vs veh, FAHD1 / RFU, BDP1 / Fold change vs veh, BDP1 / RFU, LRRCC1 / Fold change vs veh, LRRCC1 / RFU, ARID1A / Fold change vs veh, ARID1A / RFU, ZNF146 / Fold change vs veh, ZNF146 / RFU, ZNF330 / Fold change vs veh, ZNF330 / RFU, GPN3 / Fold change vs veh, GPN3 / RFU, C9orf123 / Fold change vs veh, C9orf123 / RFU, N4BP2L2 / Fold change vs veh, N4BP2L2 / RFU, ARFIP1 / Fold change vs veh, ARFIP1 / RFU, FAM179B / Fold change vs veh, FAM179B / RFU, BCL10 / Fold change vs veh, BCL10 / RFU, UHRF1BP1L / Fold change vs veh, UHRF1BP1L / RFU, BET1 / Fold change vs veh, BET1 / RFU, CNOT2 / Fold change vs veh, CNOT2 / RFU, ZNF268 / Fold change vs veh, ZNF268 / Fold change vs veh, ZNF507 / RFU, DGCR2 / Fold change vs veh, DGCR2 / RFU, WDSUB1 / Fold change vs veh, WDSUB1 / Fold change vs veh, HSP90B1 /// MIR3652 / RFU, ADSS / Fold change vs veh, ADSS / RFU, GK / Fold change vs veh, GK / RFU, ZNF148 / Fold change vs veh, ZNF148 / RFU, TAF9 / Fold change vs veh, TAF9 / RFU, SLC1A5 / Fold change vs veh, SLC1A5 / RFU, SLMO2 / Fold change vs veh, SLMO2 / RFU, ABCC4 / Fold change vs veh, ABCC4 / RFU, LOC101060439 /// RAP1B / Fold change vs veh, LOC101060439 /// RAP1B / RFU, RFX7 / Fold change vs veh, RFX7 / RFU, GTPBP10 / Fold change vs veh, GTPBP10 / RFU, CNEP1R1 / Fold change vs veh, CNEP1R1 / RFU, BIVM-ERCC5 /// ERCC5 / Fold change vs veh, BIVM-ERCC5 /// ERCC5 / RFU, ILF3 / Fold change vs veh, ILF3 / RFU 11762660_at / Fold change /veh 11762660_at / RFU VCAN (11757783_s_at) / Fold change /veh VCAN (11757783_s_at) / RFU DDX43 (11728927_at) / Fold change /veh DDX43 (11728927_at) / RFU KRT8 (11758188_x_at) / Fold change /veh KRT8 (11758188_x_at) / RFU NKD1 (11759106_at) / Fold change /veh NKD1 (11759106_at) / RFU SRD5A1 (11742802_a_at) / Fold change /veh SRD5A1 (11742802_a_at) / RFU TPSAB1 /// TPSB2 (11721975_s_at) / Fold change /veh TPSAB1 /// TPSB2 (11721975_s_at) / RFU GSTM3 (11746129_a_at) / Fold change /veh GSTM3 (11746129_a_at) / RFU IL23R (11737362_x_at) / Fold change /veh IL23R (11737362_x_at) / RFU TMEM51 (11727254_a_at) / Fold change /veh TMEM51 (11727254_a_at) / RFU PIWIL2 (11732686_x_at) / Fold change /veh PIWIL2 (11732686_x_at) / RFU ORM1 (11744905_x_at) / Fold change /veh ORM1 (11744905_x_at) / RFU CCDC152 (11743942_at) / Fold change /veh CCDC152 (11743942_at) / RFU ECM1 (11717891_a_at) / Fold change /veh ECM1 (11717891_a_at) / RFU IL23R (11748794_a_at) / Fold change /veh IL23R (11748794_a_at) / RFU TNFAIP8L3 (11732012_x_at) / Fold change /veh TNFAIP8L3 (11732012_x_at) / RFU MBOAT4 (11741988_at) / Fold change /veh MBOAT4 (11741988_at) / RFU 11764193_at / Fold change /veh 11764193_at / RFU TMEM53 (11763286_at) / Fold change /veh TMEM53 (11763286_at) / RFU MAGEB2 (11727129_at) / Fold change /veh MAGEB2 (11727129_at) / RFU TMEM200A (11744735_a_at) / Fold change /veh TMEM200A (11744735_a_at) / RFU CCDC152 (11751479_a_at) / Fold change /veh CCDC152 (11751479_a_at) / RFU FAM211A (11726209_a_at) / Fold change /veh FAM211A (11726209_a_at) / RFU RGS16 (11746705_a_at) / Fold change /veh RGS16 (11746705_a_at) / RFU VCAN (11755009_s_at) / Fold change /veh VCAN (11755009_s_at) / RFU RHOB (11743442_s_at) / Fold change /veh RHOB (11743442_s_at) / RFU RGS16 (11720943_a_at) / Fold change /veh RGS16 (11720943_a_at) / RFU RGS16 (11720944_at) / Fold change /veh RGS16 (11720944_at) / RFU, VPS4B / Fold change vs veh, VPS4B / RFU, CREB1 / Fold change vs veh, CREB1 / RFU, DNAJC13 / Fold change vs veh, DNAJC13 / RFU, GNAQ / Fold change vs veh, GNAQ / RFU, CDK5R1 / Fold change vs veh, CDK5R1 / RFU, ZRANB3 / Fold change vs veh, ZRANB3 / RFU, CUL4A / Fold change vs veh, CUL4A / RFU, CCNY / Fold change vs veh, CCNY / RFU, UFL1 / Fold change vs veh, UFL1 / RFU, COG3 / Fold change vs veh, COG3 / RFU, DIAPH2 / Fold change vs veh, DIAPH2 / RFU, SKA2 / Fold change vs veh, SKA2 / RFU, AFF3 / Fold change vs veh, AFF3 / RFU, LMF1 / Fold change vs veh, LMF1 / RFU, IPO11 / Fold change vs veh, IPO11 / RFU, DFFB / Fold change vs veh, DFFB / RFU, FOXP1 / Fold change vs veh, FOXP1 / RFU, CARD8 / Fold change vs veh, CARD8 / RFU, STRN3 / Fold change vs veh, STRN3 / RFU, ADK / Fold change vs veh, ADK / RFU, RASSF2 / Fold change vs veh, RASSF2 / RFU, WIPF1 / Fold change vs veh, WIPF1 / RFU, LARP1B / Fold change vs veh, LARP1B / RFU, RASA1 / Fold change vs veh, RASA1 / RFU, RB1 / Fold change vs veh, RB1 / RFU, PPFIA1 / Fold change vs veh, PPFIA1 / RFU, MAT2A / Fold change vs veh, MAT2A / RFU, CCT5 / Fold change vs veh, CCT5 / RFU, WDR92 / Fold change vs veh, WDR92 / RFU, CUX1 / Fold change vs veh, CUX1 / RFU, TTC7A / Fold change vs veh, TTC7A / RFU, TMEM135 / Fold change vs veh, TMEM135 / RFU, DEPTOR / Fold change vs veh, DEPTOR / RFU, CPM / Fold change vs veh, CPM / RFU, DNAJB6 / Fold change vs veh, DNAJB6 / RFU, CACNA2D3 / Fold change vs veh, CACNA2D3 / RFU, DTX4 / Fold change vs veh, DTX4 / RFU, TFCP2 / Fold change vs veh, TFCP2 / RFU, GMCL1 /// GMCL1P1 / Fold change vs veh, GMCL1 /// GMCL1P1 / RFU, AEBP2 / Fold change vs veh, AEBP2 / RFU, SNHG1 /// SNORD22 /// SNORD25 /// SNORD26 /// SNORD27 /// SNORD28 /// SNORD29 /// SNORD31 / Fold change vs veh, SNHG1 /// SNORD22 /// SNORD25 /// SNORD26 /// SNORD27 /// SNORD28 /// SNORD29 /// SNORD31 / Fold change (Aza/veh), C12orf56 (ProbeSet 11735607_a_at) / Fold change (ACY-1035/veh), C12orf56 (ProbeSet 11735607_a_at) / Fold change (Aza/veh), FGFR1OP (ProbeSet 11751329_s_at) / Fold change (ACY-1035/veh), FGFR1OP (ProbeSet 11751329_s_at) / Fold change (Aza/veh), VPS36 (ProbeSet 11739960_a_at) / Fold change (ACY-1035/veh), VPS36 (ProbeSet 11739960_a_at) / RFU SYPL1 (11715823_x_at) / Fold change /veh SYPL1 (11715823_x_at) / RFU IGFBP7 (11715501_s_at) / Fold change /veh IGFBP7 (11715501_s_at) / RFU REEP3 (11722064_at) / Fold change /veh REEP3 (11722064_at) / RFU IGLL1 (11728026_x_at) / Fold change /veh IGLL1 (11728026_x_at): dose or concentration left out as unconfirmed
Details: ProbeSet 11743882_a_at; LIST D

Structure (SMILES): Nc1ncn([C@@H]2O[C@H](CO)[C@@H](O)[C@H]2O)c(=O)n1 [azacitidine]
- RFU, STRN3: 92.89 RFU
